The structures appear in SMILES notation.

The subject of data set [1] is arecoline hydrolase activity in HLC. Put plainly: Reaction phenotyping with esterase inhibitors in HLC. The data set is classed as biochemical, human. To be noted: HLC 0.2 mg/ml, arecoline 25 μM, 15 min; inhibitor concentrations as in HLM.
The subject of data set [2] is arecoline hydrolase activity in HLM. The experiment in a line: Reaction phenotyping with esterase inhibitors in HLM. In kind it is biochemical, human. To be noted: HLM 0.2 mg/ml, arecoline 25 μM, 15 min; loperamide 1 μM, digitonin 20 μM, ethanol 41 mM, BNPP 10 μM, BW284c51 25 μM, ethopropazine 1 μM, vinblastine 10 μM.
Data set [3] can be described thus: Depletion of parent compound over 90 min in fresh or thermally-inactivated HLC. The data set is classed as in vitro ADME, human.
Data set [4] in a line: Arecoline hydrolysis in human intestinal microsomes and cytosol. The data set is classed as in vitro ADME.
Data set [5] concerns the target T1, human recombinant CES2 (Homo sapiens, UniProt O00748).
T1 sequence (O00748 27-559): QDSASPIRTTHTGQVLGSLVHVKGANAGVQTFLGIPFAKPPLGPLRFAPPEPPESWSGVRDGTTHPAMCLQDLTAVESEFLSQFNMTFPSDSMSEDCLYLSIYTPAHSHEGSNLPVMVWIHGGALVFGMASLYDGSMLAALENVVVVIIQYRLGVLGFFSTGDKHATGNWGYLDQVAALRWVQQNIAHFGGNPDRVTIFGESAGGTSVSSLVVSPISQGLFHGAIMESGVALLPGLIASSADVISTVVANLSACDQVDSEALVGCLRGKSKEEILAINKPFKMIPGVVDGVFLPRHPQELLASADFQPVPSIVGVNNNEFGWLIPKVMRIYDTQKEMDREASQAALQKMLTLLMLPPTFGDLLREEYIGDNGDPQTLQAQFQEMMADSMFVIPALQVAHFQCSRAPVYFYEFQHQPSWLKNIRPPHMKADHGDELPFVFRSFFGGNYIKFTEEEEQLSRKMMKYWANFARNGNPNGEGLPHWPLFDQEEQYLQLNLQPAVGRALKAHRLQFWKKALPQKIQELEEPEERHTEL
The experiment in a line: Arecoline hydrolysis by human recombinant CES2. In kind it is in vitro ADME. Particulars: 5–40 min, CES protein 0.1–0.4 mg/ml.

The target in data set [6] is T2, human recombinant CES1 (Homo sapiens, UniProt P23141).
T2 sequence (P23141 18-567): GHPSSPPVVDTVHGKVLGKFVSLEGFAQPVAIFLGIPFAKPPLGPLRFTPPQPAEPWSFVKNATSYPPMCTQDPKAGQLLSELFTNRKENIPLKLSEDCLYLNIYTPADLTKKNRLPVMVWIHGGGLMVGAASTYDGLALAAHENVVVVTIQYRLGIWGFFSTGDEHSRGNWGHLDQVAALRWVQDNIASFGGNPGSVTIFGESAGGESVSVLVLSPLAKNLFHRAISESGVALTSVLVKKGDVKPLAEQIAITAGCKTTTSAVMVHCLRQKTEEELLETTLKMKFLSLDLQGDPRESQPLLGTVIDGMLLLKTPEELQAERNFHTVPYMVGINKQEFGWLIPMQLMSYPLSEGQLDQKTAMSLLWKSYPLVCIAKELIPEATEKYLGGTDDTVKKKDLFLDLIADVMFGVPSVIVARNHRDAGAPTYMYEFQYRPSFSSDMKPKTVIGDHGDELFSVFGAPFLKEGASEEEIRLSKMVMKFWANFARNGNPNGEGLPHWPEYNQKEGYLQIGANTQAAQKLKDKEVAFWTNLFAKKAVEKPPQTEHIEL
Put plainly: Arecoline hydrolysis by human recombinant CES1. To be noted: 5–40 min, CES protein 0.1–0.4 mg/ml. The data set is classed as in vitro ADME.

Data set [7] deals with plasma proteins. Put plainly: Fraction unbound to plasma proteins by ultrafiltration. To be noted: from fu.p. In kind it is in vitro ADME.
Experiment in data set [8]: as above
The data set is classed as in vitro ADME. To be noted: plasma protein in sodium phosphate buffer, pH 7.4.

Data set [9] is described as follows: Enzyme kinetics of hydrolysis. In kind it is in vitro ADME, human. To be noted: for Vmax: HLC 0.2 mg/ml, 15 min, 37 °C, rate of carboxylate metabolite formation; for Km at 15 min / CLint scaled / microsomal CLint: both, human, pH 7.4; for Km at 15 min: human liver cytosol (pooled); for CLint scaled / microsomal CLint: human liver cytosol.
Data set [10] is described as follows: Depletion of parent compound over 90 min in fresh or thermally-inactivated HLM. Particulars: for parent level remaining: at 90 min. In kind it is in vitro ADME, human.
The nature of data set [11]: Enzyme kinetics of hydrolysis. Particulars: for EH: hepatic extraction ratio; for ClH: well-stirred model, Q 21 ml/min/kg; for Km at 15 min / CLint scaled / microsomal CLint: both, human, pH 7.4; for Km at 15 min: human liver microsomes (pooled); for CLint scaled / microsomal CLint: human liver microsomes. The data set is classed as in vitro ADME, human. In general terms: Microsomes from liver hold many membrane-bound enzymes, among them those of drug oxidation.

The conditions of data set [12]: subjects with Alzheimer's disease treated with arecoline; cited from earlier work.
The conditions of data set [13]: mouse liver homogenate, cited from earlier work.
Setting [14] is: both, human, human liver cytosol, pH 7.4.
Where [15] appears, read: both, human, human liver microsomes, pH 7.4.

For the molecule `O=[N+]([O-])c1ccc(OP(=O)(O)Oc2ccc([N+](=O)[O-])cc2)cc1` [BNPP, bis(4-nitrophenyl)-phosphate], in data set [1], the “change in mean percent activity of arecoline hydrolase compared to control” value (from here on “change in mean percent activity”) is given as “significant reductions”. For the same molecule, the “percent activity of arecaidine formation compared to control” value (from here on “percent activity of arecaidine formation”) in [2] is recorded as 14.4%.

For the molecule `C=CC[N+](C)(C)c1ccc(CCC(=O)CCc2ccc([N+](C)(C)CC=C)cc2)cc1.[Br-].[Br-]` [BW284c51, 1,5-Bis(4-allyldimethylammoniumphenyl)pentan-3-one dibromide], the “change in mean percent activity” value in data set [1] is reported as “no significant change”. In addition, the “percent activity of arecaidine formation” value in [2] is recorded as 103%.

`COC(=O)C1=CCCN(C)C1` [arecoline]: the “arecoline concentration remaining in HLC samples compared to HLM samples” value in [3] (at 90 min, initial arecoline 10 μM) is listed as “approximately 12.8 fold”. Moreover, in data set [3] (setting [14]), the half-life (in general, the time in which the quantity being followed falls by half) at 10 μM was 97 min; the half-life at 100 μM stood at 99.8 min; the half-life at 1000 μM is 126 min. The “arecoline hydrolysis in intestinal sub-cellular fractions” value in [4] is listed as “no arecoline hydrolysis”. The “hydrolysis by CES2” value in [5] is recorded as “no hydrolysis”. In data set [6], the “hydrolysis by CES1” value is given as “sub-stantial hydrolysis”. Also, in data set [7], the “amount available for distribution to peripheral tissues” value was ~ 98% and the “amount predicted to bind plasma proteins” value is reported as ~ 2%. Besides, in [8], the fraction unbound (commonly free concentration divided by total concentration) at 15 min worked out at 0.978. In data set [9], the Vmax is reported as 118 nmol/min/mg protein; the Km – broadly, the concentration of substrate that gives half-maximal velocity – at 15 min was determined as 9.11 mM; the CLint scaled – broadly, a measure of how fast metabolising enzymes remove a compound, apart from limits set by blood flow – came out at 11.6 mL/min/kg; the microsomal CLint (as a rule, the rate of metabolic loss divided by the concentration) came to 12.9 µL/min/mg. Moreover, the parent level remaining in [10] (HLM) was 5.6 % control. In data set [10] (setting [15]), the half-life at 10 μM is 15.7 min, the half-life at 100 μM turned out to be 16.6 min and the half-life at 1000 μM stood at 17.2 min. Also, in data set [11] (HLM), the EH amounted to 0.733 and the ClH was determined as 15.4 mL/min/kg. Besides, in data set [11], the Michaelis constant (Km) at 15 min was 8.68 mM, the CLint scaled is 57.8 mL/min/kg and the microsomal CLint was 90.3 µL/min/mg. Further, the extraction ratio class entry in [11] (from EH in HLM) is “high (> 0.7)”. Besides, the “average elimination T1/2 in plasma” value in data set [12] is 10.5 min. For the same molecule, the depletion in data set [13] (30 min incubation) was around 100%. For the same molecule, in data set [13], the “maximum rate of arecoline depletion” value was 4.7 nmol/min/mg protein.

Turning to `C[C@@H]1CC[C@@]2(OC1)O[C@H]1[C@@H](O)[C@H]3[C@@H]4CC[C@H]5C[C@@H](O[C@@H]6O[C@H](CO)[C@H](O[C@@H]7O[C@H](CO)[C@@H](O)[C@H](O[C@@H]8OC[C@@H](O)[C@H](O)[C@H]8O)[C@H]7O[C@@H]7O[C@H](CO)[C@H](O)[C@H](O[C@@H]8O[C@H](CO)[C@@H](O)[C@H](O)[C@H]8O)[C@H]7O)[C@H](O)[C@H]6O)[C@H](O)C[C@]5(C)[C@H]4CC[C@]3(C)[C@H]1[C@@H]2C` [digitonin], the “change in mean percent activity” value in [1] is on record as “significant reductions”. Further, the “percent activity of arecaidine formation” value in [2] was 70%.

Take `CCO` [ethanol]: the “change in mean percent activity” value in data set [1] is given as “significant reductions”. For the same molecule, the “percent activity of arecaidine formation” value in [2] is given as 44.6%.

Regarding `CCN(CC)C(C)CN1c2ccccc2Sc2ccccc21` (centres unmarked) [ethopropazine], the “change in mean percent activity” value in data set [1] is “no significant change”. Further, the “percent activity of arecaidine formation” value in [2] is given as 102%.

Take `COC(=O)C1=CCCNC1` [guvacoline]: in data set [3] (HLC, all tested concentrations, data not shown), the depletion over time entry was “only minimal depletion”. For the same molecule, in [8], the fraction unbound at 15 min is 0.998. In addition, in data set [9], the Vmax was 14.4 nmol/min/mg protein, the Km at 15 min amounted to 27.8 mM, the CLint scaled turned out to be 0.466 mL/min/kg and the microsomal CLint came to 0.518 µL/min/mg. For the same molecule, the depletion over time result in [10] (HLM, all concentrations (0.01, 0.1, 1.0 mM), 90 min) was “only minimal depletion”. In addition, the parent level remaining in data set [10] (HLM) was found to be 98 % control. In addition, in data set [11] (HLM), the “ClH less compared to arecoline” value is reported as 96%, the “Clint.invivo less compared to arecoline” value was 99%, the “EH less compared to arecoline” value is recorded as 96% and the “Vmax less compared to arecoline” value was 96%. In addition, in data set [11] (HLM), the EH amounted to 0.0306 and the ClH is 0.643 mL/min/kg. In addition, the Vmax in [11] (HLM 0.2 mg/ml, 15 min, 37 °C, rate of carboxylate metabolite formation) was 35 nmol/min/mg protein. In [11], the Km at 15 min was 34.3 mM, the intrinsic metabolic clearance (CLint scaled) was found to be 0.654 mL/min/kg and the intrinsic clearance (microsomal CLint) came out at 1.02 µL/min/mg.

In the case of `CN(C)C(=O)C(CCN1CCC(O)(c2ccc(Cl)cc2)CC1)(c1ccccc1)c1ccccc1` [loperamide], the “change in mean percent activity” value in data set [1] is recorded as “no significant change”. In addition, in data set [2], the “percent activity of arecaidine formation” value turned out to be 100.2%.

On to `CC[C@]1(O)C[C@@H]2CN(CCc3c([nH]c4ccccc34)[C@@](C(=O)OC)(c3cc4c(cc3OC)N(C)[C@H]3[C@@](O)(C(=O)OC)[C@H](OC(C)=O)[C@]5(CC)C=CCN6CC[C@]43[C@@H]65)C2)C1` [vinblastine], for which, in data set [1], the “change in mean percent activity” value was “no significant change”. Besides, in data set [2], the “percent activity of arecaidine formation” value turned out to be 100%.

Values taken from article PMC11974249 (Drug metabolism and pharmacokinetics, 2024).
